# From ChEMBL document CHEMBL1201862, “PubChem BioAssay data set” (2004)
# Active and inactive are the calls of the source.
# Tests used:
# [1] = molecular target: Glycogen synthase kinase-3 beta (Homo sapiens, UniProt P49841); assay: Inhibition of Human GSK-3 beta Activity Measured in Biochemical System Using Microfluidics - 2063-05_Inhibitor_Dose_DryPowder_Activity. [Related pubchem assays (depositor defined):AID2709]
# [2] = molecular target: Glycogen synthase kinase-3 alpha (Homo sapiens, UniProt P49840); assay: Inhibition of Human GSK-3 alpha Activity Measured in Biochemical System Using Microfluidics - 2063-06_Inhibitor_Dose_DryPowder_Activity. [Related pubchem assays (depositor defined):AID2709]
# CAAX prenyl protease 1 = CAAX prenyl protease 1 (Saccharomyces cerevisiae S288c, UniProt P47154); assay: yeast CAAX protease Ste24 inhibition – biochemical, S. cerevisiae, plate reader, cherry-pick, dose response (AID 488815)
# Trypsin = Trypsin (Sus scrofa, UniProt P00761); assay: trypsin protease activity blockade – biochemical, quenched peptide fluorescence, cherry-pick, selectivity assay for Rce1 protease inhibitor project, dose response (AID 488789)
# CAAX prenyl protease 2 = CAAX prenyl protease 2 (Homo sapiens, UniProt Q9Y256); assay: inhibition of Ras-converting CAAX protease Rce1 – biochemical, yeast membranes, quenched-peptide fluorescence, cherry-pick, dose response (AID 588849)
# Escherichia coli = assay: microbe, parasite or virus in culture
# [3] = molecular target: Dual specificity protein phosphatase 3 (Homo sapiens, UniProt P51452); assay: SAR VHR1 Fluorescent Assay for In Vitro dose response studies Set 3. [Related pubchem assays (depositor defined):AID1654, AID1661, AID1878]; format: functional
# Phospholipase D1 = Phospholipase D1 (Homo sapiens, UniProt Q13393); assay: cellular phospholipase D1 inhibition IC50 – cell-based, dose response (AID 602151); format: functional;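 also: cellular PLD1 assay in Calu-1 cells stimulated with PMA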
# Phospholipase D2 = Phospholipase D2 (Homo sapiens, UniProt O14939); assay: cellular phospholipase D2 inhibition IC50 – cell-based, dose response (AID 602147); format: functional;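 also: cellular assay in HEK293 cells overexpressing GFP-tagged PLD2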
# Mu-type opioid receptor = Mu-type opioid receptor (Homo sapiens, UniProt P35372); assay: (§1) Counterscreen for agonists of heterodimerization of the mu 1 (OPRM1) and delta 1 (OPRD1) opioid receptors: Luminescence-based cell-based high throughput dose response assay to identify agonists of OPRM1 homodimerization.; format: functional
# BJ [4] = assay: growth inhibition of engineered Ras-driven BJ cells – cell-based, alamar blue fluorescence, cherrypicked samples, dose response (AID 2631); format: functional; conditions: Homo sapiens;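 also: confirmatory dose-response assay in RAS-dependent BJ fibroblasts engineered with TERT, LT and ST, with cytotoxicity read by fluorescence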
# [5] = molecular target: Luciferin 4-monooxygenase (Photinus pyralis, UniProt P08659); assay: inhibition of purified Photinus pyralis luciferase – biochemical, luminescence, dose response (AID 1891)
# [6] = Luminescence Cell-Based Dose Confirmation HTS to Identify Inhibitors of Platelet Dense Granule Release. [Related pubchem assays: 1663 (Primary HTS), 1678 (Summary of Project)]; format: functional
# [7] = molecular target: Delta-type opioid receptor (Homo sapiens, UniProt P41143); assay: as §1, with “of OPRD1” for “of OPRM1”, “homodimerization. [Related pubchem assays (depositor defined):AID504326, AID504355, AID504692, AID504904, AID504905]” for “homodimerization.”; format: functional
# BJ [8] = assay: cells; format: functional, cell-based; conditions: Homo sapiens
# BJ [9] = assay: BJ-TERT-LT-ST fibroblast viability loss – cell-based, RAS-independent, luminescence, dose response (AID 1935); format: functional; conditions: Homo sapiens;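 also: BJ fibroblasts immortalized with TERT plus LT and ST oncogenes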
# BJ [10] = assay: BJ-TERT fibroblast viability loss – cell-based, RAS-independent, luminescence, dose response (AID 1933); format: functional; conditions: Homo sapiens
# [11] = molecular target: 5-hydroxytryptamine receptor 5A (Homo sapiens, UniProt P47898); assay: Counterscreen for agonists of OPRM1-OPRD1 heterodimerization: luminescence-based cell-based high throughput dose response assay to identify agonists of 5-hydroxytryptamine (serotonin) 5A receptor (HTR5A). [Related pubchem assays (depositor defined):AID504326, AID504355, AID504692, AID504904, AID504905]; format: functional
# [12] = DRD fibroblast viability loss – cell-based, non-viral oncogenic, luminescence, dose response (AID 1934); format: functional; conditions: Homo sapiens
# Sequence of CAAX prenyl protease 2 (Q9Y256 whole entry): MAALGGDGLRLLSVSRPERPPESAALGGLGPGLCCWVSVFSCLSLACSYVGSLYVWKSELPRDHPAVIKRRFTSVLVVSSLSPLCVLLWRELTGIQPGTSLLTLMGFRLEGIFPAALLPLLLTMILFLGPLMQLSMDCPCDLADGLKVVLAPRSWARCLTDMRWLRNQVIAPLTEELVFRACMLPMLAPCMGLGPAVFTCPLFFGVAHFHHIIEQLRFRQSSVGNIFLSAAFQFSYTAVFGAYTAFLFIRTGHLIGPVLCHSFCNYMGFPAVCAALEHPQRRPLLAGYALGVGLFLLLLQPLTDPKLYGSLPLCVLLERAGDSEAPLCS
# Sequence of Delta-type opioid receptor (P41143 whole entry): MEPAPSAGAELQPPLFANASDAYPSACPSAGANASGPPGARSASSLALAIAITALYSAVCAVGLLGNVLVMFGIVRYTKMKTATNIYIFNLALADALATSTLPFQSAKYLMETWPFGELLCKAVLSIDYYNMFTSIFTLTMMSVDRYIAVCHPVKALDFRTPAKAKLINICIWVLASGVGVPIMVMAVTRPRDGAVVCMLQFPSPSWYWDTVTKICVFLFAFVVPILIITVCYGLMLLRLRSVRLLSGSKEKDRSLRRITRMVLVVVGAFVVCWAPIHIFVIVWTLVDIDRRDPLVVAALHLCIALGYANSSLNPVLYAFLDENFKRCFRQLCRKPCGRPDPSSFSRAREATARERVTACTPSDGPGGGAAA
# Sequence of Phospholipase D1 (Q13393 whole entry): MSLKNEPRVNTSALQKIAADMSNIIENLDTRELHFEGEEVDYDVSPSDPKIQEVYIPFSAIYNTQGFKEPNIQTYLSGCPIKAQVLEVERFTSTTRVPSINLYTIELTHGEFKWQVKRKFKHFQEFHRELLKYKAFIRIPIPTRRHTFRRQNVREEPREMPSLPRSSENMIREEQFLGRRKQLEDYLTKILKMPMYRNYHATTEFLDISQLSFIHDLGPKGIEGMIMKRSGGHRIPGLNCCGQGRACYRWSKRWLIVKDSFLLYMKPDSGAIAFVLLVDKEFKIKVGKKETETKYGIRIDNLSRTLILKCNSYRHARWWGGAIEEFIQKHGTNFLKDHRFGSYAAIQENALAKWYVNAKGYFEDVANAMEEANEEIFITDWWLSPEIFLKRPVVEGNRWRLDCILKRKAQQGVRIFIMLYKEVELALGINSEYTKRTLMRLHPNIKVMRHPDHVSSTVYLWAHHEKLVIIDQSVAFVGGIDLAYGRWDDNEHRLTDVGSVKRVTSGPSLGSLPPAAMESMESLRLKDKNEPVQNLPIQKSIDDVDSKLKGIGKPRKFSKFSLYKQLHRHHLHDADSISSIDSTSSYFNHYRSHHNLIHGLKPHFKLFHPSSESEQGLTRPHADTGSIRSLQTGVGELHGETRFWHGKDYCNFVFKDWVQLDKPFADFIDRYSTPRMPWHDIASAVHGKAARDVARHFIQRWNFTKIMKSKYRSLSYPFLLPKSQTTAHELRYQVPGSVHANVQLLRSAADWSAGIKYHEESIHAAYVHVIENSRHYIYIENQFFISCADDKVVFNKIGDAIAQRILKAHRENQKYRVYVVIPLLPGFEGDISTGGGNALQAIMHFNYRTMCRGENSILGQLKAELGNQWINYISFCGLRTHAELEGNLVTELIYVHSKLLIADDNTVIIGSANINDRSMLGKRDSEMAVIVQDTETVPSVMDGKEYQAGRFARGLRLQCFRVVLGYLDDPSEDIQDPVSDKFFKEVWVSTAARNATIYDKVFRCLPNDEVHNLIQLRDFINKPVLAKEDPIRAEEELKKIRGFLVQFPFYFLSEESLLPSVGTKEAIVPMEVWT
# Sequence of Phospholipase D2 (O14939 whole entry): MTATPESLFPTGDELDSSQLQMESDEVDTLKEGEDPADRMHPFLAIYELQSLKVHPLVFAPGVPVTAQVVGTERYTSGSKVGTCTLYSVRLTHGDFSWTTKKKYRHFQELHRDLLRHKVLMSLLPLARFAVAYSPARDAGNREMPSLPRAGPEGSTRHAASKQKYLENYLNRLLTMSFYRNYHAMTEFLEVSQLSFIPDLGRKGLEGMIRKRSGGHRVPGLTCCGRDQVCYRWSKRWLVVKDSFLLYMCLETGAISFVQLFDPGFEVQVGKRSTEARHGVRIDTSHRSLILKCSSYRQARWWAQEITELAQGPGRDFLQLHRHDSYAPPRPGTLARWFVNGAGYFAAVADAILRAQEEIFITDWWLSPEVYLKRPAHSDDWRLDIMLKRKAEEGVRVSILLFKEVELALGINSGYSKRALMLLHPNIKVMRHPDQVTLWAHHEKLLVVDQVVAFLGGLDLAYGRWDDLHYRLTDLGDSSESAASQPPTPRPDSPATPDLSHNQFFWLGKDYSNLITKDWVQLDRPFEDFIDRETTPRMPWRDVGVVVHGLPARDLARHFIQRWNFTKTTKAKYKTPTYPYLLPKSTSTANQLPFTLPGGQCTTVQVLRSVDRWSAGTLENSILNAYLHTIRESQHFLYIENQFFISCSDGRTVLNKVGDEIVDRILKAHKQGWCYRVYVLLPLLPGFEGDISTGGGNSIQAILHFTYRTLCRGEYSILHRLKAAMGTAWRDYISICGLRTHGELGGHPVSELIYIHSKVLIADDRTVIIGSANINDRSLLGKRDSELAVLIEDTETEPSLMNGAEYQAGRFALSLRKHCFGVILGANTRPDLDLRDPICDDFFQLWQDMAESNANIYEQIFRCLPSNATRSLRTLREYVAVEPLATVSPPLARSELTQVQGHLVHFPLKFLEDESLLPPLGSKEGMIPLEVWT
# Sequence of Glycogen synthase kinase-3 alpha (P49840 whole entry): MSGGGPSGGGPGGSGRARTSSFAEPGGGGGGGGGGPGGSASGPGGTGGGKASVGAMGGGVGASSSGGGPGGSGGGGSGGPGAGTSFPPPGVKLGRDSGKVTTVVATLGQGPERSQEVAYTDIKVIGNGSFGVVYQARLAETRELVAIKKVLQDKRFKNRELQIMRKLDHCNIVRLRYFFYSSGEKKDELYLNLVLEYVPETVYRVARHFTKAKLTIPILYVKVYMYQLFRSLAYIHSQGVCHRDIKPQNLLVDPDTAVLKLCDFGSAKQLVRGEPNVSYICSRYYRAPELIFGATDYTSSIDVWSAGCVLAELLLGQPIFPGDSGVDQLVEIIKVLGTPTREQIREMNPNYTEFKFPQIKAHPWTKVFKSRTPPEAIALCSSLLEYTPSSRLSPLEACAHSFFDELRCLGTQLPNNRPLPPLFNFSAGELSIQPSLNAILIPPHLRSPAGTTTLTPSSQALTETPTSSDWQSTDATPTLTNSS
# Sequence of Glycogen synthase kinase-3 beta (P49841 whole entry): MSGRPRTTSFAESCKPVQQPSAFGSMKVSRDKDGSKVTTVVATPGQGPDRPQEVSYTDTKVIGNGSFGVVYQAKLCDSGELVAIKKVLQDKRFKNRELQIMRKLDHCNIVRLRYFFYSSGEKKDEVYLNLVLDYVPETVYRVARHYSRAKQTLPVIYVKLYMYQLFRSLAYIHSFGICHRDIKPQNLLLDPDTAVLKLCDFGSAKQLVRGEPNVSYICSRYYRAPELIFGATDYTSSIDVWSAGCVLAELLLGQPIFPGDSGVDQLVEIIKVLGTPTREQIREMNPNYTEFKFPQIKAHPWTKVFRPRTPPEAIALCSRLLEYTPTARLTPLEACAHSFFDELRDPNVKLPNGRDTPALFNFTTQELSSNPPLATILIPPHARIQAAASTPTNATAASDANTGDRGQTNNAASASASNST
# Sequence of Mu-type opioid receptor (P35372 whole entry): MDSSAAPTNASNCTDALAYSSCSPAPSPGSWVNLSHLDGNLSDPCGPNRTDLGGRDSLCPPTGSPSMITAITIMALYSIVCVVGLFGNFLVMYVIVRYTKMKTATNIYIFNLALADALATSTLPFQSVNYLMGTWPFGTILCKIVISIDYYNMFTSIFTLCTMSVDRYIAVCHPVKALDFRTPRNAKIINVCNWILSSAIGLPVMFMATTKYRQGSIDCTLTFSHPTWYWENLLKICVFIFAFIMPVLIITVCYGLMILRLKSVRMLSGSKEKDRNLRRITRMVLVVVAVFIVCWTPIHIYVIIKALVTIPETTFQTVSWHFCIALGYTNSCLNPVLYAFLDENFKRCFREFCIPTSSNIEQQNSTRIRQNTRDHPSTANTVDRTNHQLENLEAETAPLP
# Sequence of CAAX prenyl protease 1 (P47154 whole entry): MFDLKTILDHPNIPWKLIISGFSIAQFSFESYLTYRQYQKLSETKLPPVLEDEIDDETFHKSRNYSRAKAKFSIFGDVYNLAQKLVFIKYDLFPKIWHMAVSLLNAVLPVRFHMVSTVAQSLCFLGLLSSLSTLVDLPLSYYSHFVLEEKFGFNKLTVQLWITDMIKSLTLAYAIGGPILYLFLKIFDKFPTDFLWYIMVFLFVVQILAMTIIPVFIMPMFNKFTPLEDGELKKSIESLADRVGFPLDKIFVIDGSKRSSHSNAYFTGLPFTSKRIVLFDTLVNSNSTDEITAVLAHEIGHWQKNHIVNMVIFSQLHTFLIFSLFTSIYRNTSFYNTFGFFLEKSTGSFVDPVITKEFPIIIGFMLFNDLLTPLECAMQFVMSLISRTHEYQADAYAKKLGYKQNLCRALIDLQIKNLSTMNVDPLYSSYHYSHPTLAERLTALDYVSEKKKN
# Sequence of 5-hydroxytryptamine receptor 5A (P47898 whole entry): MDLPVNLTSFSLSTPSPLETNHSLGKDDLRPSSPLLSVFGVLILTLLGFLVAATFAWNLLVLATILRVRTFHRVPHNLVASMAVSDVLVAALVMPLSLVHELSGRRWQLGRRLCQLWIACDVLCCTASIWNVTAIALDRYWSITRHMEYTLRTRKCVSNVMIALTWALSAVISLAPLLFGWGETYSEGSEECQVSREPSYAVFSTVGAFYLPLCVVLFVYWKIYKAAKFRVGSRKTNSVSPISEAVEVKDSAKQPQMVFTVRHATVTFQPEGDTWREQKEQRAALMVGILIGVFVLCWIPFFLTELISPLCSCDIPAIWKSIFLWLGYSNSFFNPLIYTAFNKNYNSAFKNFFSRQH
compound,measurement,setting,value
CCOC(=O)c1nnn(-c2nonc2N)c1CSc1ccc(C)cc1,AC50,[1],1.19 µM (active)
same,AC50,[2],8.32 µM (active)
CC(Oc1ccc2c3c(c(=O)oc2c1)CCCC3)C(=O)NC1CC(C)(C)NC(C)(C)C1 (centres undefined),AC50,CAAX prenyl protease 1,2.88 µM (active)
same,AC50,Trypsin,9.81 µM (active)
same,AC50,CAAX prenyl protease 2,16.2 µM (active)
COc1ccc(S(=O)(=O)N2CCN(CC(=O)Nc3c(C)n[nH]c3C)CC2)cc1OC,AC50,Escherichia coli,62.1 µM (active)
COc1cccc2sc(NC(=O)c3ccccc3)nc12,IC50,[3],> 66 µM (inactive)
C[C@H](CN1CCC2(CC1)C(=O)NCN2c1ccccc1)NC(=O)c1ccc(F)cc1,IC50,Phospholipase D1,0.413 µM (active)
same,IC50,Phospholipase D2,0.2 µM (active)
Cc1occc1C(=O)N/N=C/c1ccc(-c2ccccc2)cc1,EC50,Mu-type opioid receptor,> 92.4 µM (inactive)
same,EC50,BJ [4],> 133 µM (inactive)
same,EC50,[5],0.151 µM (active)
same,EC50,[6],0.897 µM (active)
same,EC50,[7],> 92.4 µM (inactive)
same,EC50,BJ [8],3.14 µM (active)
same,EC50,BJ [9],10.3 µM (active)
same,EC50,BJ [10],4.43 µM (active)
same,EC50,[11],> 92.4 µM (inactive)
same,EC50,[12],3.41 µM (active)
